According to ChEMBL document CHEMBL1139759, “Discovery and SAR studies of novel GlyT1 inhibitors” (Bioorg Med Chem Lett, 2007):

Experiments:
[1] = target: T1, Sodium- and chloride-dependent glycine transporter 2 (Homo sapiens, UniProt Q9Y345); experiment: Inhibition of [14C]glycine reuptake at human GlyT2 expressed in BE(2)-C cells; assay type: cell-based
T1 sequence (Q9Y345 whole entry): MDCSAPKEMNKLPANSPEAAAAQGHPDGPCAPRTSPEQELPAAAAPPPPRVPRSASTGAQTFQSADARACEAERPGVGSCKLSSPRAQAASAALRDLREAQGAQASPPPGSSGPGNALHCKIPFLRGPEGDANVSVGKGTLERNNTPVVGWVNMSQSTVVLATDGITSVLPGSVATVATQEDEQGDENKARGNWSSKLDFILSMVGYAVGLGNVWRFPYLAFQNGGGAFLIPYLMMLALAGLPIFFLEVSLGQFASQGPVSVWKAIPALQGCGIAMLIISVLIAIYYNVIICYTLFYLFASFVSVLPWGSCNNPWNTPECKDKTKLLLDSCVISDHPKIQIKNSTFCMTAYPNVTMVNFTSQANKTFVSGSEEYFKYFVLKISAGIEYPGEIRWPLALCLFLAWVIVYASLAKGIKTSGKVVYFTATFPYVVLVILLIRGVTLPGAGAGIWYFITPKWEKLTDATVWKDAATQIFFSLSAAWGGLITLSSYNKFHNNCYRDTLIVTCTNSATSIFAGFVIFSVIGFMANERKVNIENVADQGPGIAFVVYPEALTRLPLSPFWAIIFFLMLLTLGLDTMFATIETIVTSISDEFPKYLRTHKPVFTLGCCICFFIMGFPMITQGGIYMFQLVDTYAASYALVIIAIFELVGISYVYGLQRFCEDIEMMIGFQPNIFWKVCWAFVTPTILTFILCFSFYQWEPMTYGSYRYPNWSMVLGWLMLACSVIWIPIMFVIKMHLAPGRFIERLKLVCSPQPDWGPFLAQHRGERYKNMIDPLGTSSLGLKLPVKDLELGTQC

[2] = test system: Rattus norvegicus; experiment: Increase in glycine level of Sprague-Dawley rat cerebrospinal fluid at 30 mg/kg, sc; assay type: functional; conditions: route subcutaneous
[3] = test system: Cerebrospinal fluid; experiment: Drug level in rat cerebrospinal fluid at 30 mg/kg, sc; assay type: ADME, organism-based; parameters: dose 30 mg/kg, route subcutaneous; conditions: in vivo
[4] = target: T2, Sodium- and chloride-dependent glycine transporter 1 (Homo sapiens, UniProt P48067); experiment: Inhibition of [14C]glycine reuptake at human GlyT1 expressed in BE(2)-C cells; assay type: cell-based
T2 sequence (P48067 whole entry): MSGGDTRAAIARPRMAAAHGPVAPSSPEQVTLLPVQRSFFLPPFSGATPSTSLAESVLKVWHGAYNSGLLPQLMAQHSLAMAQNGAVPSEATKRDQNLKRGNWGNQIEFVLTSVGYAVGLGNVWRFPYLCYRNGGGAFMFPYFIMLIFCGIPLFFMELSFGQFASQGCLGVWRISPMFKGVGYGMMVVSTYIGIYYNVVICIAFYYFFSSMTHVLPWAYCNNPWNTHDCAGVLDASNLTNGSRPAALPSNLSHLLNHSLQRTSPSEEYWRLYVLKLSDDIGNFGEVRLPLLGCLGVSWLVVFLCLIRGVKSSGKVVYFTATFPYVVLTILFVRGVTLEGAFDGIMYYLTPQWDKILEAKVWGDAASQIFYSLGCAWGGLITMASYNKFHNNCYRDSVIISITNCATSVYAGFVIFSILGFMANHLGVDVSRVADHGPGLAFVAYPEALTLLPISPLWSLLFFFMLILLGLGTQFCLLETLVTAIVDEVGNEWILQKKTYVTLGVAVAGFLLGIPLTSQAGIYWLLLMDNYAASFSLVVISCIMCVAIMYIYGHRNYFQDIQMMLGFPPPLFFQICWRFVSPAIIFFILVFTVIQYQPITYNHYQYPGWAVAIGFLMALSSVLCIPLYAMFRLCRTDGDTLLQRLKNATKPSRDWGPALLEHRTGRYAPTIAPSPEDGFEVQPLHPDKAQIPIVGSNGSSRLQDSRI

Row | IC50 [1] [nM] | Drug uptake [3] [ng/mL] | IC50 [4] [nM] | Compound | Activity [2] [%]
1 | > 30000 | 47 |  | CN(CC[C@@H](Oc1ccc(-c2ccccc2)cc1)c1ccc(F)cc1)CC(=O)O | 204
2 | > 30000 |  | 12 | CN(CCOc1ccc(-c2ccc3c(c2)OCO3)cc1-c1ccccc1Cl)CC(=O)O | 
3 | > 30000 |  | 56 | Cc1ccccc1-c1cc(-c2ccccc2)ccc1OCCN(C)CC(=O)O | 
4 | > 30000 |  | 351 | COc1ccccc1-c1cc(-c2ccccc2)ccc1OCCN(C)CC(=O)O | 
5 | > 30000 |  | 139 | CN(CCOc1ccc(-c2ccccc2)cc1-c1ccsc1)CC(=O)O | 
6 | > 30000 |  | 175 | CN(CCOc1ccc(-c2ccccc2Cl)cc1C(=O)c1cccs1)CC(=O)O | 
7 | > 30000 |  | 26 | CN(CCOc1ccc(-c2cccc(Cl)c2)cc1C(=O)c1cccs1)CC(=O)O | 
8 | > 30000 |  | 632 | Cc1ccccc1-c1ccc(OCCN(C)CC(=O)O)c(C(=O)c2cccs2)c1 | 
9 | > 30000 |  | 45 | Cc1cccc(-c2ccc(OCCN(C)CC(=O)O)c(C(=O)c3cccs3)c2)c1 | 
10 | > 30000 |  | 59 | Cc1ccc(-c2ccc(OCCN(C)CC(=O)O)c(C(=O)c3cccs3)c2)cc1 | 
11 | > 30000 |  | 27 | COc1ccc(-c2ccc(OCCN(C)CC(=O)O)c(C(=O)c3cccs3)c2)cc1 | 
12 | > 30000 |  | 76 | Cc1ccc(-c2ccc(OCCN(C)CC(=O)O)c(C(=O)c3cccs3)c2)cc1C | 
13 | > 30000 |  | 957 | CN(CCOc1ccc(-c2ccccc2)cc1-c1nccs1)CC(=O)O | 
14 | > 30000 |  | 834 | COc1ccc(-c2ccc(OCCN(C)CC(=O)O)c(C(=O)c3cccs3)c2)cc1OC | 
15 | > 30000 |  | 19 | CN(CCOc1ccc(-c2ccc3c(c2)OCO3)cc1C(=O)c1cccs1)CC(=O)O | 
16 | > 30000 |  | 496 | CN(CCOc1ccc(-c2ccccc2)cc1-c1cccc2ccccc12)CC(=O)O | 
17 | > 30000 |  | 40 | CN(CCOc1ccc(-c2ccccc2)cc1Cc1cccs1)CC(=O)O | 
18 | > 30000 | 113 | 70 | CN(CCOc1ccc(-c2ccccc2)cc1-c1cccs1)CC(=O)O | 196
19 | > 30000 |  | 85 | CN(CCOc1ccc(-c2ccccc2)cc1Cc1ccccc1)CC(=O)O | 
20 | > 30000 |  | 229 | CN(CCOc1ccc(-c2ccccc2)cc1-c1ccccc1)CC(=O)O | 

Row | IC50 [1] [nM] | Drug uptake [3] [ng/mL] | IC50 [4] [nM] | Compound | Activity [2] [%]
21 | > 30000 |  | 70 | CN(CCOc1ccc(-c2ccccc2)cc1C(=O)C1CCCCC1)CC(=O)O | 
22 | > 30000 |  | 251 | CN(CCOc1ccc(-c2ccccc2)cc1C1CCCCC1)CC(=O)O | 
23 | > 30000 |  | 674 | CN(CCOc1ccc(-c2ccccc2)cc1-c1cccc(Cl)c1)CC(=O)O | 
24 | > 30000 |  | 108 | CN(CCOc1ccc(-c2ccccc2)cc1-c1ccccc1F)CC(=O)O | 
25 | > 30000 |  | 28 | COc1ccc(-c2ccc(OCCN(C)CC(=O)O)c(-c3ccccc3Cl)c2)cc1C | 
26 | > 30000 |  | 14 | CN(CCOc1ccc(-c2ccc3c(c2)OCCO3)cc1-c1ccccc1Cl)CC(=O)O | 
27 | > 30000 |  | 17 | CN(CCOc1ccc(-c2ccc3c(c2)CCO3)cc1-c1cccs1)CC(=O)O | 
28 | > 30000 |  | 965 | CN(CCOc1ccc(-c2ccccc2)cc1-c1ccc(Cl)cc1)CC(=O)O | 
29 | > 30000 |  | 13 | CN(CCOc1ccc(-c2ccc3c(c2)CCO3)cc1-c1ccccc1Cl)CC(=O)O | 
30 | > 30000 |  | 68 | CN(CCOc1ccc(-c2ccc(Cl)cc2)cc1C(=O)c1cccs1)CC(=O)O | 
31 | > 30000 |  | 104 | COc1cccc(-c2ccc(OCCN(C)CC(=O)O)c(C(=O)c3cccs3)c2)c1 | 
32 | > 30000 |  | 18 | COc1ccc(-c2ccc(OCCN(C)CC(=O)O)c(C(=O)c3cccs3)c2)cc1C | 
33 | > 30000 |  | 289 | CN(CCOc1ccc(-c2ccccc2)cc1CC1CCCCC1)CC(=O)O | 
34 | > 30000 | 15 | 45 | CN(CCOc1ccc(-c2ccccc2)cc1C(=O)c1cccs1)CC(=O)O | 114
35 | > 30000 |  | 161 | COc1ccc(-c2ccc(OCCN(C)CC(=O)O)c(-c3cccs3)c2)cc1C | 
36 | > 30000 |  | 34 | CN(CCOc1ccc(-c2ccc3c(c2)OCO3)cc1-c1cccs1)CC(=O)O | 
37 | > 30000 |  | 702 | CN(CCOc1ccc(C(F)(F)F)cc1C(=O)c1cccs1)CC(=O)O | 
38 | > 30000 |  | 25 | CN(CCOc1ccc(-c2ccc3c(c2)OCCO3)cc1-c1cccs1)CC(=O)O | 
39 | > 30000 |  | 65 | CN(CCOc1ccc(-c2ccccc2)cc1C(=O)c1ccccc1)CC(=O)O | 
40 | > 30000 | 25 | 53 | CN(CCOc1ccc(-c2ccccc2)cc1-c1ccccc1Cl)CC(=O)O | 155
